In publication PMC3379994, “Comprehensive Analysis of Interactions between the Src-Associated Protein in Mitosis of 68 kDa and the Human Src-Homology 3 Proteome” (PLoS ONE, 2012) one finds Kd data, which are given here for two substances.

One assay addresses T1, β-Pix-SH3 (Homo sapiens, UniProt Q14155).
T1 construct: gene ARHGEF7; β-Pix SH3 domain
T1 sequence (Q14155 184-243): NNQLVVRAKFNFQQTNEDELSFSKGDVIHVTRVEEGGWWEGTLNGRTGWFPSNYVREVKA
The following applies: cited from earlier work. An excerpt: Remarkably, Kd values calculated for the Sam68-SH3-interactions (considering the aforementioned correction value) lie in the low nanomolar range (cf. Fig. 1B). This is unexpected for SH3 domains, whose affinities are considered to lie in the low micromolar range [2], [51]. However, critical examination of the literature challenges the generality of the latter proposition. […] This can have a significant influence on binding-strength, as illustrated for instance for the Abp1-SH3 domain, comprising a Kd-value of 100 µM to a 14-mer ligand-peptide, and 40 µM after elongation to a 17-mer peptide. Nevertheless, some values obtained for Sam68-SH3 interactions still are one order of magnitude lower than even the best reported in the literature. Likely, this is due to an artifical avidity effect resulting from the use of the SH3-phages. As the SH3 domains bind to more than one of the PxxP-motifs, it is conceivable that one phage-particle docks to two or more PxxP-motifs of an individual Sam68 molecule via multiple SH3 domains. Consequently, even after dissociation of one SH3-PxxP-pair, the phage would still be retained by the protein. Kinetically, this corresponds to a decrease in the off-rate and concomitantly to a decrease in the Kd value. The affinity gain of the interaction is not due to cooperativity, as is evident from the Hill-transformed ELISA data yielding Hill-coefficients α of 1.0. […]

The target of another assay is Nck1#2 (Homo sapiens, UniProt P16333). The following applies: n = 3. As for the experimental part:
To characterize the binding of SH3-phages to recombinant proteins, phage-ELISA analyses were performed. First, 1 µg of recombinant protein per well was immobilized on 96-well MaxiSorp plates (Nunc) over night. After washing thrice with PBS/T (PBS with 0.1 % Tween-20) and blocking with 5 % BSA in PBS, dilution-series of the respective phage-supernatants in 2×YTAmp,Kana were added and incubated for 1 h. After washing 10 times with PBS/T, an HRP-coupled anti-M13-antibody (GE Healthcare, 27-9421-01) diluted 1 : 5000 in blocking solution was added for 1 h. After washing again 10 times, TMB substrate solution was added, the reaction finally stopped by addition of 0.5 M H2SO4, and the result read out by measuring OD450. […]
First, we aimed at quantifying the binding affinities of the SH3-displaying phages to Sam68. […] Finally, bound phages were detected using an anti-M13-specific HRP-coupled antibody. […]
(§1) Figure 1 Analysis of Sam68-binding SH3 domains in vitro. […] The amounts of bound phages were measured using a horseradish peroxidase-conjugated anti-M13-specific antibody with TMB-substrate detection at 450 nm (mean of three independent experiments, normalized to maximum OD-values). […] Bound proteins were eluted and Sam68 was detected by western blot analysis. […]

A further assay addresses Hck (Homo sapiens, UniProt P08631). The following applies: n = 3. Here is the method: (§2) To characterize the binding of SH3-phages to recombinant proteins, phage-ELISA analyses were performed. First, 1 µg of recombinant protein per well was immobilized on 96-well MaxiSorp plates (Nunc) over night. After washing thrice with PBS/T (PBS with 0.1 % Tween-20) and blocking with 5 % BSA in PBS, dilution-series of the respective phage-supernatants in 2×YTAmp,Kana were added and incubated for 1 h. After washing 10 times with PBS/T, an HRP-coupled anti-M13-antibody (GE Healthcare, 27-9421-01) diluted 1 : 5000 in blocking solution was added for 1 h. After washing again 10 times, TMB substrate solution was added, the reaction finally stopped by addition of 0.5 M H2SO4, and the result read out by measuring OD450.
(§3) First, we aimed at quantifying the binding affinities of the SH3-displaying phages to Sam68. To this end, we established a phage-ELISA procedure to separately analyse phage supernatants of the ten individual SH3-phages. In brief, His-Sam68 was coated to a 96-well plate, blocked and incubated with a dilution series of phage supernatants. Finally, bound phages were detected using an anti-M13-specific HRP-coupled antibody. As depicted in Fig. 1A, binding curves were obtained that are typical for a simple ligand-receptor relationship as is expected for an SH3-domain-PxxP-interaction showing no allosteric effects. Kd-values can not be deduced from these curves in the first instance, because the concentration of SH3 domains in the supernatants is unknown due to each phage particle presenting many copies on its surface. […]
as §1

For another assay, the target named is T2, IS2#3 (Homo sapiens, UniProt Q9NZM3).
T2 construct: gene ITSN2
T2 sequence (Q9NZM3 981-1039): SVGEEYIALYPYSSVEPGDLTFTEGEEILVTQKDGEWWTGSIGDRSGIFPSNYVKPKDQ
The conditions noted are these: n = 3. Here is the method:
as §2, §3, §1

For a further assay, the target named is Src (Homo sapiens, UniProt P12931). The conditions noted are these: n = 3. Here is the method: as §2, §3, §1

Chain of Hck (P08631 78-138): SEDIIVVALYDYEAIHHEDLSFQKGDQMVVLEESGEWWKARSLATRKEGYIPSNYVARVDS

For the substance Pak2, the Kd (in general, the concentration at which binding is half-saturated) at β-Pix-SH3 is 59 nM.

On to “Src-associated in mitosis 68 kDa (KHDRBS1), full-length, N-terminally His-tagged recombinant [Sam68]”, for which the Kd was 31 nM at Nck1#2, 31 nM at Hck, 59 nM at IS2#3 and 6 nM at Src.
